The target in experiment [1] is T1, Human α4β2 (Homo sapiens, UniProt P17787+P43681).
T1 construct: expressed in transfected cells; obtained from Dr. Ron Lukas, Barrow Neurological Institute
As to the kind of experiment: Competition binding to receptors in membrane preparations, human α4β2 ([3H]-nicotine). On the procedure: (§1) SH-EP1/human α4β2 (Eaton et al., 2003), SH-EP1/human α4β4 (Gentry et al., 2003), SH-EP1/α6β3β4α5 (Grinevich et al., 2005), TE671/RD and SH-SY5Y cell lines (obtained from Dr. Ron Lukas, Barrow Neurological Institute) were maintained in proliferative growth phase in Dulbecco's modified Eagle's medium (Gibco/BRL) with 10% horse serum (Gibco BRL), 5% fetal bovine serum (HyClone, Logan Utah), 1 mM sodium pyruvate, 4 mM L-glutamine. For maintenance of stable transfectants, the α4β2 and α4β4 cell media was supplemented with 0.25 mg/mL zeocin and 0.13 mg/mL hygromycin B. Selection was maintained for the α6β3β4α5 cells with 0.25 mg/mL of zeocin, 0.13 mg/mL of hygromycin B, 0.4 mg/mL of geneticin, and 0.2 mg/mL of blasticidin. HEK/human α7/RIC3 cells (obtained from J. Lindstrom, U. Pennsylvania) were maintained in proliferative growth phase in Dulbecco's modified Eagle's medium (Gibco/BRL) with 10% fetal bovine serum (HyClone, Logan Utah), 1 mM sodium pyruvate, 4 mM L-glutamine, 0.4 mg/mL geneticin; 0.2 mg/ml hygromycin B.
(§2) Cells were harvested in ice-cold PBS, pH 7.4, then homogenized with a polytron (Brinkmann Instruments, Westbury, N.Y.). Homongenates were centrifuged at 40,000 g for 20 minutes (4° C.). The pellet was resuspended in PBS and protein concentration determined using the Pierce BCA Protein Assay kit (Pierce Biotechnology, Rockford, Ill.).
(§3) Binding to nicotinic receptors was assayed on membranes using standard methods adapted from published procedures (Lippiello and Fernandes, 1986; Davies et al., 1999). In brief, membranes were reconstituted from frozen stocks (approximately 0.2 mg protein) and incubated for 2 h on ice in […] assay buffer (PBS) in the presence of competitor compound (0.001 nM to […]) and radioligand. [^3H]-nicotine (L-(−)-[N-methyl-3H]-nicotine, 69.5 Ci/mmol, Perkin-Elmer Life Sciences) was used for human α4β2 binding studies. [^3H]-epibatidine (52 Ci/mmol, Perkin-Elmer Life Sciences) was used for binding studies at the other receptor subtypes. Incubation was terminated by rapid filtration on a multimanifold tissue harvester (Brandel, Gaithersburg, Md.) using GF/B filters presoaked in 0.33% polyethyleneimine (w/v) to reduce non-specific binding. Filters were washed 3 times and the radioactivity retained was determined by liquid scintillation counting.
(§4) Binding data were expressed as percent total control binding. Replicates for each point were averaged and plotted against the log of drug concentration. The IC50 (concentration of the compound that produces 50% inhibition of binding) was determined by least squares non-linear regression using GraphPad Prism software (GraphPAD, San Diego, Calif.). Ki was calculated using the Cheng-Prusoff equation (Cheng and Prusoff, 1973).

For experiment [2], the target named is T2, Human Ganglion (Homo sapiens, UniProt P30926+P32297).
T2 construct: endogenous in cells
The experiment in a line: Competition binding to receptors in membrane preparations, human ganglion subtype ([3H]-epibatidine). On the procedure:
as §1, §2, §3, §4

The target in experiment [3] is Rat Ganglion (Rattus norvegicus, UniProt P04757+P12392). As to the kind of experiment: Competition binding to receptors in membrane preparations, rat ganglion subtype ([3H]-epibatidine). On the procedure: as §3, §4
In experiment [4] the target is T3, Human α7 nAChR (Homo sapiens, UniProt P36544).
T3 construct: expressed in transfected cells; host or cells: HEK cells co-expressing RIC3 (from J. Lindstrom, U. Pennsylvania)
The experiment in a line: Competition binding to receptors in membrane preparations, human α7 ([3H]-epibatidine). On the procedure: as §1, §2, §3, §4

Read-outs that look alike come from different tables or passages of the source.

A word on the Ki: it is the equilibrium dissociation constant of an inhibitor or competing ligand from its target. For the compound `CCC(=O)N1CC[C@H](Oc2cncc(/C=C/C[C@H](C)NC)c2)C1`, the results for the Ki in experiment [1] (read-out: Human α4β2 Ki), in experiment [2] and in experiment [3] were 0.0097 µM, 43 µM and 40 µM, respectively.

With `CN[C@@H](C)C/C=C/c1cncc(O[C@@H]2CCN(C(C)=O)C2)c1`, the inhibition constant (Ki) in experiment [1] (read-out: Human α4β2 Ki) was determined as 0.0026 µM; in experiment [2] it was 41 µM; in experiment [3], 24 µM.

As for `CCC(=O)N1CC[C@@H](Oc2cncc(/C=C/C[C@H](C)NC)c2)C1`, the Ki in experiment [1] (read-out: Human α4β2 Ki) turned out to be 0.0019 µM; in experiment [2], 19 µM; in experiment [3], 88 µM.

As to `CN[C@@H](C)C/C=C/c1cnc(Cl)c(O[C@H]2CCN(C(=O)C(C)C)C2)c1`, the inhibitory constant (Ki) in experiment [1] (read-out: Human α4β2 Ki) came to 0.013 µM; in experiment [4] it was 29 µM; in experiment [2] it was 27 µM; in experiment [3], 16 µM.

For `CN[C@@H](C)C/C=C/c1cncc(O[C@H]2CCN(C(=O)c3ccc(F)cc3F)C2)c1`, the Ki in experiment [1] (read-out: Human α4β2 Ki) is 0.029 µM; in experiment [4], 47 µM; in experiment [2], 3.3 µM; in experiment [3] it was 80 µM.

`CN[C@@H](C)C/C=C/c1cncc(O[C@H]2CCN(C(=O)C(C)(C)C)C2)c1`: the Ki in experiment [1] (read-out: Human α4β2 Ki) turned out to be 0.0075 µM; in experiment [4], 100 µM; in experiment [2] it was 19 µM; in experiment [3], 130 µM.

Take `CN[C@@H](C)C/C=C/c1cnc(Cl)c(O[C@H]2CCN(C(=O)C(C)(C)C)C2)c1`: the Ki worked out at 0.0067 µM in experiment [1] (read-out: Human α4β2 Ki), 39 µM in experiment [4], 4.8 µM in experiment [2] and 11 µM in experiment [3].

Consider `CN[C@@H](C)C/C=C/c1cncc(O[C@H]2CCN(C(=O)C3CCC3)C2)c1`, for which the Ki in experiment [1] (read-out: Human α4β2 Ki) stood at 0.018 µM; in experiment [4], 66 µM; in experiment [2], 27 µM; in experiment [3], 17 µM.

For the compound `CN[C@@H](C)C/C=C/c1cncc(O[C@H]2CCN(C(=O)C3CCCC3)C2)c1`, the Ki in experiment [1] (read-out: Human α4β2 Ki) is 0.0078 µM; in experiment [4], 85 µM; in experiment [2], 13 µM; in experiment [3], 6.9 µM.

For `CN[C@@H](C)C/C=C/c1cnc(Cl)c(O[C@H]2CCN(C(=O)C3CCCC3)C2)c1`, the Ki in experiment [1] (read-out: Human α4β2 Ki) is 0.0021 µM; in experiment [4], 160 µM; in experiment [2], 7.6 µM; in experiment [3], 55 µM.

For the compound `CN[C@@H](C)C/C=C/c1cncc(O[C@H]2CCN(C(=O)CC(C)(C)C)C2)c1`, the Ki was 0.011 µM in experiment [1], 65 µM in experiment [4], 12 µM in experiment [2] and 21 µM in experiment [3].

As for `CN[C@@H](C)C/C=C/c1cnc(Cl)c(O[C@H]2CCN(C(=O)CC(C)(C)C)C2)c1`, the inhibition constant Ki in experiment [1] (read-out: Human α4β2 Ki) came out at 0.0064 µM; in experiment [4], 48 µM; in experiment [2], 15 µM; in experiment [3] it was 11 µM.

As for `CN[C@@H](C)C/C=C/c1cncc(O[C@H]2CCN(C(=O)CC(F)(F)F)C2)c1`, the Ki in experiment [1] (read-out: Human α4β2 Ki) came to 0.003 µM; in experiment [4], 68 µM; in experiment [2], 5.4 µM; in experiment [3], 6.8 µM.

Regarding `CN[C@@H](C)C/C=C/c1cncc(O[C@H]2CCN(C(=O)CC3CCCC3)C2)c1`, the Ki is 0.0086 µM in experiment [1] (read-out: Human α4β2 Ki), 49 µM in experiment [4], 26 µM in experiment [2] and 11 µM in experiment [3].

Turning to `CN[C@@H](C)C/C=C/c1cnc(Cl)c(O[C@H]2CCN(C(=O)CC3CCCC3)C2)c1`, the Ki stood at 0.0061 µM in experiment [1] (read-out: Human α4β2 Ki), 36 µM in experiment [4], 2.5 µM in experiment [2] and 4 µM in experiment [3].

In the case of `CN[C@@H](C)C/C=C/c1cncc(O[C@H]2CCN(C(=O)CCC(F)(F)F)C2)c1`, the Ki in experiment [1] (read-out: Human α4β2 Ki) worked out at 0.011 µM; in experiment [4], 49 µM; in experiment [2], 18 µM; in experiment [3], 33 µM.

On to `CN[C@@H](C)C/C=C/c1cnc(Cl)c(O[C@H]2CCN(C(=O)CCC(F)(F)F)C2)c1`, for which the Ki is 0.0028 µM in experiment [1], 13 µM in experiment [4], 25 µM in experiment [2] and 31 µM in experiment [3].

For `CN[C@@H](C)C/C=C/c1cncc(O[C@H]2CCN(C(=O)c3ccc(F)cc3)C2)c1`, the Ki in experiment [1] (read-out: Human α4β2 Ki) stood at 0.0052 µM; in experiment [4], 58 µM; in experiment [2] it was 14 µM; in experiment [3], 190 µM.

On to `CN[C@@H](C)C/C=C/c1cnc(Cl)c(O[C@H]2CCN(C(=O)c3ccc(F)cc3)C2)c1`, for which the Ki in experiment [1] (read-out: Human α4β2 Ki) amounted to 0.0015 µM; in experiment [4] it was 98 µM; in experiment [2] it was 16 µM; in experiment [3], 5.9 µM.

For the compound `CN[C@@H](C)C/C=C/c1cncc(O[C@@H]2CCN(C(=O)C(C)C)C2)c1`, the Ki in experiment [1] (read-out: Human α4β2 Ki) stood at 0.009 µM; in experiment [4], 35 µM; in experiment [2], 11 µM; in experiment [3], 50 µM.

For `CN[C@@H](C)C/C=C/c1cncc(O[C@@H]2CCN(C(=O)c3ccc(F)cc3F)C2)c1`, the Ki was 0.0059 µM in experiment [1] (read-out: Human α4β2 Ki), 41 µM in experiment [4], 3 µM in experiment [2] and 19 µM in experiment [3].

Take `CN[C@@H](C)C/C=C/c1cncc(O[C@@H]2CCN(C(=O)C(C)(C)C)C2)c1`: the Ki in experiment [1] (read-out: Human α4β2 Ki) was determined as 0.017 µM; in experiment [4] it was 51 µM; in experiment [2], 21 µM; in experiment [3], 100 µM.

Take `CN[C@@H](C)C/C=C/c1cncc(O[C@@H]2CCN(C(=O)C3CCC3)C2)c1`: the inhibitory constant (Ki) was 0.0061 µM in experiment [1] (read-out: Human α4β2 Ki), 58 µM in experiment [4], 26 µM in experiment [2] and 45 µM in experiment [3].

With `CN[C@@H](C)C/C=C/c1cncc(O[C@@H]2CCN(C(=O)CC(C)(C)C)C2)c1`, the Ki in experiment [1] worked out at 0.032 µM; in experiment [4], 260 µM; in experiment [2] it was 43 µM; in experiment [3], 35 µM.

With `CN[C@@H](C)C/C=C/c1cncc(O[C@@H]2CCN(C(=O)CC3CCCC3)C2)c1`, the Ki in experiment [1] (read-out: Human α4β2 Ki) was determined as 0.011 µM; in experiment [4], 53 µM; in experiment [2], 5.8 µM; in experiment [3], 170 µM.

For the compound `CN[C@@H](C)C/C=C/c1cncc(O[C@@H]2CCN(C(=O)CCC(F)(F)F)C2)c1`, the Ki amounted to 0.0043 µM in experiment [1] (read-out: Human α4β2 Ki), 170 µM in experiment [4], 19 µM in experiment [2] and 43 µM in experiment [3].

As for `CN[C@@H](C)C/C=C/c1cncc(O[C@@H]2CCN(C(=O)c3ccc(F)cc3)C2)c1`, the Ki in experiment [1] (read-out: Human α4β2 Ki) stood at 0.0067 µM; in experiment [4], 53 µM; in experiment [2], 6.8 µM; in experiment [3], 100 µM.

As for `CN[C@@H](C)C/C=C/c1cnc(Cl)c(O[C@@H]2CCN(C(=O)c3ccc(F)cc3F)C2)c1`, the Ki in experiment [1] (read-out: Human α4β2 Ki) was 0.0038 µM; in experiment [4] it was 22 µM; in experiment [2], 6.6 µM; in experiment [3] it was 22 µM.

Take `CN[C@@H](C)C/C=C/c1cnc(Cl)c(O[C@@H]2CCN(C(=O)C(C)(C)C)C2)c1`: the Ki in experiment [1] (read-out: Human α4β2 Ki) is 0.0087 µM; in experiment [4], 34 µM; in experiment [2], 26 µM; in experiment [3], 1.1 µM.

As to `CN[C@@H](C)C/C=C/c1cnc(Cl)c(O[C@@H]2CCN(C(=O)CC(F)(F)F)C2)c1`, the Ki in experiment [1] (read-out: Human α4β2 Ki) turned out to be 0.0012 µM; in experiment [4] it was 300 µM; in experiment [2], 18 µM; in experiment [3], 8.5 µM.

On to `CN[C@@H](C)C/C=C/c1cncc(O[C@H]2CCN(C(=O)C(C)C)C2)c1`, for which the Ki amounted to 0.0061 µM in experiment [1] (read-out: Human α4β2 Ki), 36 µM in experiment [4], 20 µM in experiment [2] and 5.7 µM in experiment [3].

Turning to `CN[C@@H](C)C/C=C/c1cnc(Cl)c(O[C@@H]2CCN(C(=O)c3ccc(F)cc3)C2)c1`, the Ki is 0.0033 µM in experiment [1] (read-out: Human α4β2 Ki), 61 µM in experiment [4], 2 µM in experiment [2] and 3.7 µM in experiment [3].

Source of the values: patent publication US20150119378A1, “AZETIDINYLOXY-, PYRROLIDINYLOXY-, AND PIPERIDINYLOXY-SUBSTITUTED METANICOTINES AS NEURONAL NICOTINIC ACETYLCHOLINE RECEPTOR LIGANDS” (priority 2013, published 2015).
